Experimental data from patent US4305953A, “Synergistic fungicidal compositions” (priority 1979, dated 1981).

Tests used:
[1] = tested on: Erysiphe graminis; test: in vivo effect against powdery mildew on sprayed plants (Example 6, Table VI); conditions: fenapronil 25 EC, benomyl 50 WP, 6 days after infection
Description: (§1) The in vivo effect of various mixtures of triadimefon 50 WP and benomyl 50 WP was observed against powders mildew (Erysiphe graminis). The plants were grown in plots at 20° C., under a relative humidity of 98% for 7 days. The one-week old plant were then sprayed with the test composition and after drying were […] with Erysiphe graminis. After incubation for 6 days the results were evaluated.
The procedure described in Example 5 was used but fenapronil 25 EC and benomyl 50 WP were tested. The following results have been obtained.

[2] = tested on: Erysiphe graminis; test: in vivo effect against powdery mildew on sprayed plants (Example 5, Table V); conditions: triadimefon 50 WP, benomyl 50 WP, 6 days after infection
Description: as §1

[3] = tested on: various fungi; test: interaction / activity against various fungi in vitro, overall result in words; type: cell-based
[4] = tested on: lipid and sterol synthesis; conditions: mode of action; cited from earlier work
[5] = tested on: fungi which are sensitive to them; conditions: Fritz et al. 1977; cited from earlier work
[6] = tested on: obligate parasites such as real powdery mildew, blight, rust; conditions: cited from earlier work

SMILES | Extent of infection ([1]; concentration 12 ppm) [%] | Extent of infection ([1]; concentration 25 ppm) [%] | Extent of infection ([1]; concentration 50 ppm) [%] | Extent of infection ([2]; concentration 3%) [%] | Extent of infection ([2]; concentration 6%) [%] | Extent of infection ([2]; concentration 12%) [%] | activity alone [3] | inhibition of lipid and sterol synthesis [4] | accumulation of fatty acids and triglycerides [5] | activity against obligate parasites [6]
CCCCNC(=O)n1c(NC(=O)OC)nc2ccccc21 [benomyl, methyl 1-(butylcarbamoyl)-2-benzimidazolecarbamate] | 78 | 64 | 56 | 32.2 | 23.3 | 16.3 |  |  |  | 
CCCCC(C#N)(Cn1ccnc1)c1ccccc1 (stereo not drawn) [fenapronil, 1H-α-butyl-α-phenylimidazol-1-yl-propanenitrile] | 43 | 23 | 14 |  |  |  | extremely potent alone and has a wide field of activity | inhibiting lipid and sterol synthesis |  | 
CC(C)NC(=O)N1CC(=O)N(c2cc(Cl)cc(Cl)c2)C1=O [promidion, 3-(3,5-dichlorophenyl)-2,4-dioxo-1-(N-isopropyl)-imidazolinecarboxamide] |  |  |  |  |  |  |  |  | induce an accumulation of fatty acids and triglycerides | 
CC(C)(C)C(=O)C(Oc1ccc(Cl)cc1)n1cncn1 (stereo not shown) [triadimefon, 1-(4-chlorophenoxy)-3,3-dimethyl-1-(1H)-(1,2,4-triazol-1-yl)buthan-2-one] |  |  |  | 73.5 | 66.0 | 40.6 | entirely ineffective against the fungi tested in vitro | inhibiting lipid and sterol synthesis |  | effective against obligate parasites such as real powdery mildew, blight, rust
C=CC1(C)OC(=O)N(c2cc(Cl)cc(Cl)c2)C1=O (stereo not shown) [vinclosolin, 3-(3,5-dichlorophenyl)-5-methyl-5-vinyl-1,3-oxazolidine-2,4-dione] |  |  |  |  |  |  |  |  | induce an accumulation of fatty acids and triglycerides | 
